Measured values published in patent US20230092163A1, “COMPOUNDS AND COMPOSITIONS FOR TREATING CONDITIONS ASSOCIATED WITH STING ACTIVITY” (IFM Due, Inc., priority 2019, published 2023).

What follows are molecules tested against STING (Homo sapiens, UniProt Q86WV6, G230A/H232R/R293Q/R71H) (assay: STING reporter assay: THP1-Dual KO-IFNAR2 cells stimulated with 2′3′cGAMP, luciferase reporter activity). Conditions: 15 μM 2′3′cGAMP, 24h, class symbols.
Sequence of STING (Q86WV6 whole entry R71H/G230A/H232R/R293Q): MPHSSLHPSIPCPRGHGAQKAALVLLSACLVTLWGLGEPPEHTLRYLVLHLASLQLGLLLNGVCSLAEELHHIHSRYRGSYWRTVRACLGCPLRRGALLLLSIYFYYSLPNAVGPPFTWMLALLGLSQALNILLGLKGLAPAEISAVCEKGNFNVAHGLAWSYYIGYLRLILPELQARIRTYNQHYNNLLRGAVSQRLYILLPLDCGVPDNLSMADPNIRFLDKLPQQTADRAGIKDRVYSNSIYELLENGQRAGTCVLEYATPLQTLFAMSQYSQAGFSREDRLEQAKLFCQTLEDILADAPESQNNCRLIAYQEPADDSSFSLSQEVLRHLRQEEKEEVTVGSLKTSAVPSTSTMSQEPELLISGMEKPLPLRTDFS
Format: cell-based
Procedure, shortened: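 THP1-Dual KO-IFNAR2 cells (2×10E6 cells/mL) treated with compounds at 0.0017-100 μM, then stimulated with 2′3′cGAMP (15 μM final) delivered by Lipofectamine 2000; 24 h at 37° C. Supernatant luciferase read by QUANTI-Luc Plus luminescence; EC50 from dose-response.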
`Fc1cc2ccc(Nc3ccc4cc[nH]c4c3)nc2cc1C(F)(F)F` [Compound 551] was tested, and the EC50 was 0.2 to 1 µM. With `Cc1cc2ccc(Nc3ccc4cc[nH]c4c3)nc2cc1C(F)(F)F` [Compound 552] the EC50 was 0.2 to 1 µM. `FC(F)(F)c1c(Cl)ccc2nc(Nc3ccc4cc[nH]c4c3)ccc12` [Compound 553] showed an EC50 of 0.2 to 1 µM. For `Fc1cc(C(F)(F)F)cc2nc(Nc3ccc4cc[nH]c4c3)ccc12` [Compound 554], the EC50 was 1 to 5 µM. `FC(F)(F)c1ccc2ncc(Nc3ccc4cc[nH]c4c3)nc2c1` [Compound 555] gave an EC50 of 1 to 5 µM. `FC(F)(F)c1cc2nc(Nc3ccc4cc[nH]c4c3)ccc2cc1Cl` [Compound 556] was tested, and the EC50 was 1 to 5 µM. `Fc1cc(C(F)(F)F)c2ccc(Nc3ccc4cc[nH]c4c3)nc2c1` [Compound 558] showed an EC50 of 0.2 to 1 µM. Work on `c1cnc2nc(Nc3ccc4ccn(-c5ccc6cccnc6n5)c4c3)ccc2c1` [Compound 560, N-[1-(1,8-naphthyridin-2-yl)-1H-indol-6-yl]-1,8-naphthyridin-2-amine] yielded an EC50 of 1 to 5 µM. Work on `FC(F)(F)c1ccc2c(Cl)cc(Nc3ccc4cc[nH]c4c3)nc2c1` [Compound 562, 4-chloro-N-(1H-indol-6-yl)-7-(trifluoromethyl)quinolin-2-amine] yielded an EC50 of 5 to 100 µM. Molecule `FC(F)(F)c1cc(Cl)cc2nc(Nc3ccc4cc[nH]c4c3)ccc12` [Compound 563] has an EC50 of 0.2 to 1 µM. Work on `FC(F)(F)c1cc(Cl)c2ccc(Nc3ccc4cc[nH]c4c3)nc2c1` [Compound 564] yielded an EC50 of 0.2 to 1 µM. `Cc1cc2ccc(C(F)(F)F)cc2nc1Nc1ccc2cc[nH]c2c1` [Compound 565] gave an EC50 of 0.2 to 1 µM. Work on `c1cc2ccc(Nc3ccc4c(n3)CCCC4)cc2[nH]1` [Compound 567, N-(1H-indol-6-yl)-5,6,7,8-tetrahydroquinolin-2-amine] yielded an EC50 of 5 to 100 µM. For `FC(F)(F)c1nc(Nc2cc(Cl)c3cc[nH]c3c2)ccc1Cl` [Compound 568], the EC50 was 0.2 to 1 µM. For `FC(F)(F)c1cc(Nc2ccc3cc[nH]c3c2)nc(Nc2ccc3cc[nH]c3c2)c1` [Compound 570, N2,N6-bis(1H-indol-6-yl)-4-(trifluoromethyl)pyridine-2,6-diamine], the EC50 was 0.2 to 1 µM. Work on `Cc1nc(Nc2ccc3cc[nH]c3c2)ccc1OC(C)C` [Compound 571, N-[6-methyl-5-(propan-2-yloxy)pyridin-2-yl]-1H-indol-6-amine] yielded an EC50 of 1 to 5 µM. `O=C(Nc1ccc(C(F)(F)F)cc1)Nc1cc(N2CCCC(Cn3cncn3)C2)c2cc[nH]c2c1` (stereo not shown) [Compound 572] gave an EC50 of 5 to 100 µM. `c1cnc2nc(Nc3ccc4cc[nH]c4c3)ccc2c1` [Compound 573, N-(1H-indol-6-yl)-1,8-naphthyridin-2-amine] showed an EC50 of 5 to 100 µM. With `FC(F)(F)c1cccc2nc(Nc3ccc4cc[nH]c4c3)ccc12` [Compound 574, N-(1H-indol-6-yl)-5-(trifluoromethyl)quinolin-2-amine] the EC50 was 0.2 to 1 µM. In the case of `FC(F)(F)Oc1ccc2c(Cl)cc(Nc3ccc4cc[nH]c4c3)nc2c1` [Compound 576, 4-chloro-N-(1H-indol-6-yl)-7-(trifluoromethoxy)quinolin-2-amine], the EC50 is reported as 1 to 5 µM. `Clc1cc(Cl)c2ccc(Nc3ccc4cc[nH]c4c3)nc2c1` [Compound 577, 5,7-dichloro-N-(1H-indol-6-yl)quinolin-2-amine] was tested, and the EC50 was 0.2 to 1 µM. For `Cc1cc(Nc2ccc3cc[nH]c3c2)nc(C(F)(F)F)c1` [Compound 578], the EC50 was 0.2 to 1 µM. `FC(F)(F)c1ccc2ccc(Nc3ccc4cc[nH]c4c3)cc2n1` [Compound 579] showed an EC50 of 1 to 5 µM. `Cc1cc2cc[nH]c2cc1Nc1ccc2ccc(C(F)(F)F)cc2n1` [Compound 580, N-(5-methyl-1H-indol-6-yl)-7-(trifluoromethyl)quinolin-2-amine] gave an EC50 of 5 to 100 µM. `Clc1ccc(Nc2ccc3cc[nH]c3c2)nc1Nc1ccc2cc[nH]c2c1` [Compound 581, 3-chloro-N2,N6-bis(1H-indol-6-yl)pyridine-2,6-diamine] showed an EC50 of 5 to 100 µM. For `N#Cc1cc(Nc2ccc3cc[nH]c3c2)cc(Nc2ccc3cc[nH]c3c2)n1` [Compound 582, 4,6-bis[(1H-indol-6-yl)amino]pyridine-2-carbonitrile], the EC50 was 0.2 to 1 µM. `Cc1nc(Nc2ccc3cc[nH]c3c2)ccc1Nc1ccc2cc[nH]c2c1` [Compound 583, N2,N5-bis(1H-indol-6-yl)-6-methylpyridine-2,5-diamine] was tested, and the EC50 was 5 to 100 µM. `FC(F)c1ccc2ccc(Nc3ccc4cc[nH]c4c3)nc2c1` [Compound 586, 7-(difluoromethyl)-N-(1H-indol-6-yl)quinolin-2-amine] was tested, and the EC50 was 1 to 5 µM. Work on `COc1ccc2ccc(Nc3ccc4cc[nH]c4c3)nc2c1` [Compound 587, N-(1H-indol-6-yl)-7-methoxyquinolin-2-amine] yielded an EC50 of 1 to 5 µM. `COc1ccc2c(Cl)cc(Nc3ccc4cc[nH]c4c3)nc2c1` [Compound 588, 4-chloro-N-(1H-indol-6-yl)-7-methoxyquinolin-2-amine] gave an EC50 of 1 to 5 µM. With `Clc1ccc2ccc(Nc3ccc4cc[nH]c4c3)nc2c1` [Compound 589, 7-chloro-N-(1H-indol-6-yl)quinolin-2-amine] the EC50 was 0.2 to 1 µM. Molecule `FC(F)(F)c1ccc(Nc2ccc3cc[nH]c3c2)nc1Cl` [Compound 591] has an EC50 of 1 to 5 µM. For `Cc1ccc2ccc(Nc3ccc4cc[nH]c4c3)nc2c1` [Compound 592], the EC50 was 1 to 5 µM. With `Fc1cnc(Nc2ccc3cc[nH]c3c2)cc1Nc1ccc2cc[nH]c2c1` [Compound 593, 5-fluoro-N2,N4-bis(1H-indol-6-yl)pyridine-2,4-diamine] the EC50 was 1 to 5 µM. Work on `CCOc1ccc(Nc2ccc3cc[nH]c3c2)nc1C` [Compound 594, N-(5-ethoxy-6-methylpyridin-2-yl)-1H-indol-6-amine] yielded an EC50 of 5 to 100 µM. For `Cc1nc(Nc2ccc3cc[nH]c3c2)ccc1Cl` [Compound 595, N-(5-chloro-6-methylpyridin-2-yl)-1H-indol-6-amine], the EC50 was 5 to 100 µM. `O=C(Nc1ccc(C(F)(F)F)cc1)Nc1cc(C(=O)OC2CCCC2)c2cc[nH]c2c1` [Compound 602, cyclopentyl 6-(3-(4-(trifluoromethyl)phenyl)ureido)-1H-indole-4-carboxylate] showed an EC50 of 1 to 5 µM. Work on `FC(F)(F)c1ccc2ccc(Nc3cc(Cl)c4cc[nH]c4c3)nc2c1` [Compound 604] yielded an EC50 of 0.2 to 1 µM. In the case of `CN(c1ccc2cc[nH]c2c1)c1ccc2ccc(C(F)(F)F)cc2n1` [Compound 605, N-(1H-indol-6-yl)-N-methyl-7-(trifluoromethyl)quinolin-2-amine], the EC50 is reported as 5 to 100 µM. `C1=C(c2ccc3ccc(Nc4ccc5cc[nH]c5c4)nc3c2)CCCC1` [Compound 606, 7-(cyclohex-1-en-1-yl)-N-(1H-indol-6-yl)quinolin-2-amine] was tested, and the EC50 was 1 to 5 µM. Molecule `Brc1ccc2ccc(Nc3ccc4cc[nH]c4c3)nc2c1` [Compound 607] has an EC50 of 0.2 to 1 µM. For `Cn1ccc2ccc(Nc3ccc4ccc(C(F)(F)F)cc4n3)cc21` [Compound 608, N-(1-methyl-1H-indol-6-yl)-7-(trifluoromethyl)quinolin-2-amine], the EC50 was 5 to 100 µM. In the case of `FC(F)(F)c1cccc(Nc2ccc3cc[nH]c3c2)n1` [Compound 609], the EC50 is reported as 5 to 100 µM. Work on `CCCCc1ccc(Nc2c(Nc3ccc4c(c3)CC=N4)c(=O)c2=O)cc1` [Compound 618] yielded an EC50 of 1 to 5 µM. `O=c1c(Nc2ccc(C(F)(F)F)cc2)c(Nc2ccc3[nH]ccc3c2)c1=O` [Compound 619] showed an EC50 of 1 to 5 µM. `O=c1c(Nc2ccc(C(F)(F)F)cc2)c(Nc2ccc3cc[nH]c3c2)c1=O` [Compound 620] gave an EC50 of 1 to 5 µM.

Same assay, conditions: 15 μM 2′3′cGAMP, 24h, numeric bounds
`Cc1c(Nc2ccc3ccc(C(F)(F)F)cc3n2)ccc2cc[nH]c12` [Compound 557] was tested, and the EC50 was > 30 µM. `Fc1ccc2ccc(Nc3ccc4cc[nH]c4c3)nc2c1` [Compound 559, 7-fluoro-N-(1H-indol-6-yl)quinolin-2-amine] was tested, and the EC50 was > 30 µM. `COc1nc(Nc2ccc3cc[nH]c3c2)ccc1CO` [Compound 561, {6-[(1H-indol-6-yl)amino]-2-methoxypyridin-3-yl}methanol] was tested, and the EC50 was > 30 µM. With `c1cc2ccc(Nc3ccc4c(n3)CCC4)nc2[nH]1` [Compound 566] the EC50 was > 30 µM. In the case of `Cc1nc(Nc2ccc3ccn(-c4ccc(OC(C)C)c(C)n4)c3c2)ccc1OC(C)C` [Compound 569, N,1-bis[6-methyl-5-(propan-2-yloxy)pyridin-2-yl]-1H-indol-6-amine], the EC50 is reported as > 30 µM. `CC(=O)c1ccc2ccc(Nc3ccc4cc[nH]c4c3)nc2c1` [Compound 575, 1-{2-[(1H-indol-6-yl)amino]quinolin-7-yl}ethan-1-one] was tested, and the EC50 was > 30 µM. In the case of `Cc1nc(Nc2ccc3cc[nH]c3c2)ccc1F` [Compound 584, N-(5-fluoro-6-methylpyridin-2-yl)-1H-indol-6-amine], the EC50 is reported as > 30 µM. For `CC1(C)Oc2ccc(Nc3ccc4cc[nH]c4c3)nc2NC1=O` [Compound 585, 6-[(1H-indol-6-yl)amino]-2,2-dimethyl-2H,3H,4H-pyrido[3,2-b][1,4]oxazin-3-one], the EC50 was > 30 µM. With `O=C1CCc2nc(Nc3ccc4cc[nH]c4c3)ccc21` [Compound 596, 2-[(1H-indol-6-yl)amino]-5H,6H,7H-cyclopenta[b]pyridin-5-one] the EC50 was > 30 µM. In the case of `COC(=O)c1ccc(Nc2ccc3cc[nH]c3c2)nc1OC` [Compound 597], the EC50 is reported as > 30 µM. For `Cc1nc(Nc2ccc3cc[nH]c3c2)ccc1C#N` [Compound 598, 6-((1H-indol-6-yl)amino)-2-methylnicotinonitrile], the EC50 was > 30 µM. `COc1ccc(Nc2ccc3cc[nH]c3c2)nc1C` [Compound 599, N-(5-methoxy-6-methylpyridin-2-yl)-1H-indol-6-amine] was tested, and the EC50 was > 30 µM. In the case of `c1cc2ccc(Nc3ccc4c(cnn4C4CCCCO4)n3)cc2[nH]1` (stereo not shown) [Compound 600, N-[1-(oxan-2-yl)-1H-pyrazolo[4,3-b]pyridin-5-yl]-1H-indol-6-amine], the EC50 is reported as > 30 µM. In the case of `COc1ccc(Nc2ccc3cc[nH]c3c2)nc1F` [Compound 601, N-(6-fluoro-5-methoxypyridin-2-yl)-1H-indol-6-amine], the EC50 is reported as > 30 µM. With `COc1nc(Nc2ccc3cc[nH]c3c2)ccc1C#N` [Compound 603, 6-[(1H-indol-6-yl)amino]-2-methoxypyridine-3-carbonitrile] the EC50 was > 30 µM.
